“Also recorded” adds a separate entry of the source. Where two headings read alike, the source gives them in different places.
Assays:
[1] = Cell viability assay (MTT), cytotoxic activity; assay type: cell-based, human; conditions: 24 h, MTT; for viability at 24 h, 10 µM / viability at 24 h, 100 µM: percent of control
Procedure: (§1) The HepG2 and H9c2 cells were cultured in DMEM medium (Biolot, St. Petersburg, Russia) containing 10% fetal bovine serum (Biolot, St. Petersburg, Russia) and 1% penicillin/streptomycin (Biolot, St. Petersburg, Russia) at 37 °C in a humidified atmosphere with 5% (v/v) CO2.
(§2) The HepG2 and H9c2 cells were seeded at concentrations of 5× 10^3 and 3×10^3 cell/well, respectively, and the experiments were started after 24 h. The compounds at concentrations up to 100 µM were added into the wells for 24 h, and the viability of the cells was measured by an MTT (3-(4,5-dimethylthiazol-2-yl)-2,5-diphenyltetrazolium bromide) assay, which was performed according to the manufacturer’s instructions (Sigma-Aldrich, Munich, Germany). All compounds were dissolved with DMSO so that the final concentration of DMSO in the cell culture was not more than 1%. Moreover, DMSO was used as a control. The absorbance of the resulting solution was measured at 570 nm with a microplate reader MultiscanFC (ThermoLabsystems Inc., Beverly, MA, USA). The results are presented as a percent of the control data and calculated IC50.

[2] = test system: normal rat cardiomyocyte H9c2 cells; assay: Cell viability assay (MTT), cytotoxic activity; assay type: cell-based; conditions: for decrease of H9c2 cell viability: 100 µM; for IC50: 24 h, MTT, read-out: H9c2 IC50 (cytotoxic effect)
Procedure: as §1, §2

[3] = biological target: T1, urease from Canavalia ensiformis (Canavalia ensiformis, UniProt P07374); assay: Urease inhibition assay (indophenol method, cell-free); assay type: biochemical
T1 construct: purchased Sigma
Procedure: A reaction mixture consisting of 25 µL of enzyme solution (urease from Canavalia ensiformis, Sigma, 1U final concentration) and 5 µL of test compounds dissolved in water (10–300.0 µM final concentration) was preincubated at 37 °C for 60 min in 96-well plates. Then, 55 µL of phosphate-buffered solution with […] of urea was added to each well and incubated at 37 °C for 10 min. The urease inhibitory activity was estimated by determining ammonia production using the indophenol method. Briefly, 45 µL of phenol reagent (1% w/v phenol and 0.005% w/v sodium nitroprusside) and 70 µL of alkali reagent (0.5% w/v NaOH and 0.1% active chloride NaClO) were added to each well. The absorbance was measured after 50 min at 630 nm using a MultiskanFS microplate reader (Thermo Scientific Inc., Beverly, MA, USA). All reactions were performed in triplicate in a final volume of 200 µL. The pH was maintained at 7.3–7.5 in all assays. DMSO 5% was used as a positive control.

Candida albicans KMM 455 = assay: Antimicrobial activity, inhibition of microbial growth (OD620); assay type: cell-based; conditions: for inhibition at 100 µM: Candida albicans
Procedure: (§3) The yeast-like fungi of Candida albicans KMM 455 and bacterial strains Staphylococcus aureus ATCC 21027 and Escherichia coli VKPM (B-7935) (Collection of Marine Microorganisms PIBOC FEB RAS) were cultured on solid-medium Mueller Hinton broth with agar (16.0 g/L) in a Petri dish at 37 °C for 24 h.
(§4) The assays were performed in 96-well microplates in appropriate Mueller Hinton broth. Each well contained 90 µL of bacterial or of a yeast-like fungi suspension (10^9 CFU/mL). Then, 10 µL of a compound diluted at concentrations ranging from 1.5 to 100.0 µM using a 2-fold dilution was added (DMSO concentration < 1%). Culture plates were incubated overnight at 37 °C, and the OD620 was measured using a Multiskan FS spectrophotometer (Thermo Scientific Inc., Beverly, MA, USA). The antibiotic gentamicin and antifungal agent nitrofungin were used as positive controls at 1 mg/mL; 1% DMSO in PBS served as a negative control.

[4] = test system: Staphylococcus aureus ATCC 21027; assay: as above; assay type: cell-based; conditions: Staphylococcus aureus
Procedure: as §3, §4

[5] = test system: Escherichia coli VKPM (B-7935); assay: as above; assay type: cell-based; conditions: Escherichia coli, read-out: Inhibition of Microbial Growth, E. coli
Procedure: as §3, §4

[6] = test system: human hepatocarcinoma HepG2 cells; assay: Cell viability assay (MTT), cytotoxic activity; assay type: cell-based; conditions: for decrease of HepG2 cell viability: 100 µM; for IC50: 24 h, MTT, read-out: HepG2 IC50 (cytotoxic effect)
Procedure: as §1, §2

[7] = test system: S. aureus-infected H9c2 cardiomyocytes; assay: Staphylococcus aureus-induced infection of H9c2 cardiomyocytes (in vitro model of infectious myocarditis, MTT); assay type: cell-based, rat; conditions: 1 and 10 µM
Procedure: The H9c2 cells were seeded at concentrations of 3 × 10^3 cell/well. After 24 h, the cell culture media was changed with an S. aureus bacterial suspension (10^2 CFU/mL) prepared in full DMEM culture media. The investigated compounds at concentrations of 1 and 10 µM were added after 1 h and the cells were incubated for 48 h. The S. aureus suspension with compounds at the same concentrations was used as a control. MTT reagent was added to all wells and formazan production was detected with the microplate reader MultiscanFC (ThermoLabsystems Inc., Beverly, MA, USA). The viability of S. aureus-infected cells was calculated as:Viability, relative units = (OD cells+Sa +comp − OD Sa+comp)/(OD cells+Sa − OD Sa)

[8] = human, HepG2 cells (human hepatocarcinoma), read-out: HepG2 IC50 (cytotoxic effect)
[9] = human, HepG2 hepatocarcinoma cells
[10] = rat, H9c2 cells (normal rat cardiomyocytes), read-out: H9c2 IC50 (cytotoxic effect)
[11] = KMM455, compounds tested at 100 µM, read-out: Inhibition of Microbial Growth, C. albicans
[12] = ATCC21027, compounds tested at 100 µM, read-out: Inhibition of Microbial Growth, S. aureus
[13] = human, read-out: HepG2 Cell Viability
[14] = rat, read-out: H9c2 Cell Viability

T1 sequence (P07374 whole entry, looked up): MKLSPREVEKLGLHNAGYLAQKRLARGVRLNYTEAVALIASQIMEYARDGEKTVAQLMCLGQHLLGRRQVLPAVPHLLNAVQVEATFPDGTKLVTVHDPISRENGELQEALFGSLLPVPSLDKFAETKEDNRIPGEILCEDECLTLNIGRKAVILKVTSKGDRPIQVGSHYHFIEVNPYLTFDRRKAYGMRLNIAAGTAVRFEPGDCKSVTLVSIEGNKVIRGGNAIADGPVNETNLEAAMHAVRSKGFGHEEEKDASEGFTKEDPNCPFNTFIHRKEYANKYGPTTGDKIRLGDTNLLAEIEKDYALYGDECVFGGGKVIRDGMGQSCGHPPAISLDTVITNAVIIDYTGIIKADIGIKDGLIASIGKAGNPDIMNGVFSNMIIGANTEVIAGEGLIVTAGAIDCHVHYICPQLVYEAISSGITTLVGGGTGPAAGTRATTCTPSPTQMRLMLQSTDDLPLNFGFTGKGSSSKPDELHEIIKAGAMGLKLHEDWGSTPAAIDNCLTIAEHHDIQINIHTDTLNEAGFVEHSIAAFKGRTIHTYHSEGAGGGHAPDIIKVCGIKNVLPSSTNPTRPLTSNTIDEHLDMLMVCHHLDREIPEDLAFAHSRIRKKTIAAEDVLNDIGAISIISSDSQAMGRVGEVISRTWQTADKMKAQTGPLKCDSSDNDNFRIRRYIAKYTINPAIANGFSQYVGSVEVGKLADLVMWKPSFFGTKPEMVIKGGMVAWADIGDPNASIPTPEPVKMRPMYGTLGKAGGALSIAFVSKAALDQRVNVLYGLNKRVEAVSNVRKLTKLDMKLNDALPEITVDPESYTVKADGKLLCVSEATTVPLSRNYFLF

COC1=CC(=O)c2c(O)cc(O)cc2[C@@]1(C)O [Compound 1, sajaroketide A]
IC50 at 24 h [1, 8]: > 100 µM | viability at 24 h, 10 µM [1, 9]: 108 ± 3.2% | viability at 24 h, 100 µM [1, 9]: 107 ± 3.9% | viability at 24 h, 10 µM ([1]; rat, H9c2 cardiomyocyte cells): 83.6 ± 4.4% | viability at 24 h, 100 µM ([1]; rat, H9c2 cardiomyocyte cells): 65.4 ± 4.8% | IC50 at 24 h [1, 10]: > 100 µM | decrease of H9c2 cell viability [2]: 34.6% | IC50 [3]: > 100 µM | effect on urease activity ([3]; at concentrations of up to 100 µM): no effect; also recorded: very poor | inhibition at 100 µM (Candida albicans KMM 455; [11]): < 10% | inhibition at 100 µM [4, 12]: 35.1 ± 0.9% | inhibition at 100 µM ([5]; compounds tested at 100 µM): 25.4 ± 1%

Cc1cc(O)cc2oc3cc(O)cc(O)c3c(=O)c12 [Compound 5, norlichexanthone]
IC50 at 24 h [1, 8]: ~100 µM | viability at 24 h, 10 µM [1, 9]: 88 ± 4.9% | viability at 24 h, 100 µM [1, 9]: 52.6 ± 3% | viability at 24 h, 10 µM ([1]; rat, H9c2 cardiomyocyte cells): 86.3 ± 6.3% | viability at 24 h, 100 µM ([1]; rat, H9c2 cardiomyocyte cells): 49 ± 1.6% | IC50 at 24 h [1, 10]: ~100 µM | decrease of HepG2 cell viability [6]: 47.4% | IC50 [6]: > 100 µM | decrease of H9c2 cell viability [2]: 51.0% | IC50 [2]: 97.4 ± 2.2 µM | IC50 [3]: 15.3 ± 2.1 µM | inhibition at 100 µM (Candida albicans KMM 455; [11]): < 10% | inhibition at 100 µM [4, 12]: 20.8 ± 6.5% | inhibition at 100 µM ([5]; compounds tested at 100 µM): 27.9 ± 3.3%

COc1cc(O)c2c(=O)c3c(C)cc(O)cc3oc2c1 [Compound 6, griseoxanthone C]
effect on the viability of S. aureus-infected H9c2 cardiomyocytes [7]: did not show any statistical effect | viability at 24 h, 10 µM [1, 13]: 85.7 ± 5.7% | viability at 24 h, 100 µM [1, 13]: 27.1 ± 2.4% | IC50 at 24 h ([1]; human, read-out: HepG2 IC50 (cytotoxic effect)): 64.7 ± 0.8 µM | viability at 24 h, 10 µM [1, 14]: 86 ± 4.8% | viability at 24 h, 100 µM [1, 14]: 63.3 ± 1.4% | IC50 at 24 h ([1]; rat, read-out: H9c2 IC50 (cytotoxic effect)): > 100 µM | decrease of HepG2 cell viability [6]: 72.9% | decrease of H9c2 cell viability [2]: 36.7% | IC50 [3]: 97.3 ± 1.6 µM | inhibition at 100 µM (Candida albicans KMM 455; KMM455, read-out: Inhibition of Microbial Growth, C. albicans): < 10% | Inhibition of Microbial Growth, C. albicans (Candida albicans KMM 455; compounds tested at 100 µM): did not affect | inhibition at 100 µM ([4]; ATCC21027, read-out: Inhibition of Microbial Growth, S. aureus): < 10% | inhibition at 100 µM [5]: < 10%

Cc1cc(O)c(O)c2oc3cc(O)cc(O)c3c(=O)c12 [Compound 7, 1,3,5,6-tetrahydroxy-8-methylxanthone]
IC50 at 24 h [1, 8]: ~100 µM | viability at 24 h, 10 µM [1, 9]: 77.1 ± 1.4% | viability at 24 h, 100 µM [1, 9]: 57.4 ± 4.2% | viability at 24 h, 10 µM ([1]; rat, H9c2 cardiomyocyte cells): 98 ± 0.9% | viability at 24 h, 100 µM ([1]; rat, H9c2 cardiomyocyte cells): 52.9 ± 1.5% | IC50 at 24 h [1, 10]: ~100 µM | decrease of HepG2 cell viability [6]: 42.6 µM | IC50 [6]: > 100 µM | IC50 [2]: > 100 µM | IC50 [3]: 100 µM | inhibition at 100 µM (Candida albicans KMM 455; [11]): 15.4 ± 2.1% | inhibition at 100 µM [4, 12]: < 10% | inhibition at 100 µM ([5]; compounds tested at 100 µM): < 10%

From paper PMC10706121, “Bioactive Polyketides from the Natural Complex of the Sea Urchin-Associated Fungi Penicillium sajarovii KMM 4718 and Aspergillus protuberus KMM 4747” (International Journal of Molecular Sciences, 2023)
